One experiment deals with T1, GluN1/GluN2B receptors (Rattus norvegicus, UniProt P35439+Q00960).
T1 construct: expressed in transfected cells; host or cells: HEK293
In words: Patch-clamp inhibition of glutamate responses of GluN1/GluN2B receptors in transfected HEK293 cells. The class given is cell-based. (In general: Patch clamp records ionic current or voltage across a cell membrane.)

The target in a further experiment is T2, GluN1/GluN2C receptors (Rattus norvegicus, UniProt P35439+Q00961).
T2 construct: expressed in transfected cells; host or cells: HEK293
T2 sequence (Q00961 20-1237, other chains not shown): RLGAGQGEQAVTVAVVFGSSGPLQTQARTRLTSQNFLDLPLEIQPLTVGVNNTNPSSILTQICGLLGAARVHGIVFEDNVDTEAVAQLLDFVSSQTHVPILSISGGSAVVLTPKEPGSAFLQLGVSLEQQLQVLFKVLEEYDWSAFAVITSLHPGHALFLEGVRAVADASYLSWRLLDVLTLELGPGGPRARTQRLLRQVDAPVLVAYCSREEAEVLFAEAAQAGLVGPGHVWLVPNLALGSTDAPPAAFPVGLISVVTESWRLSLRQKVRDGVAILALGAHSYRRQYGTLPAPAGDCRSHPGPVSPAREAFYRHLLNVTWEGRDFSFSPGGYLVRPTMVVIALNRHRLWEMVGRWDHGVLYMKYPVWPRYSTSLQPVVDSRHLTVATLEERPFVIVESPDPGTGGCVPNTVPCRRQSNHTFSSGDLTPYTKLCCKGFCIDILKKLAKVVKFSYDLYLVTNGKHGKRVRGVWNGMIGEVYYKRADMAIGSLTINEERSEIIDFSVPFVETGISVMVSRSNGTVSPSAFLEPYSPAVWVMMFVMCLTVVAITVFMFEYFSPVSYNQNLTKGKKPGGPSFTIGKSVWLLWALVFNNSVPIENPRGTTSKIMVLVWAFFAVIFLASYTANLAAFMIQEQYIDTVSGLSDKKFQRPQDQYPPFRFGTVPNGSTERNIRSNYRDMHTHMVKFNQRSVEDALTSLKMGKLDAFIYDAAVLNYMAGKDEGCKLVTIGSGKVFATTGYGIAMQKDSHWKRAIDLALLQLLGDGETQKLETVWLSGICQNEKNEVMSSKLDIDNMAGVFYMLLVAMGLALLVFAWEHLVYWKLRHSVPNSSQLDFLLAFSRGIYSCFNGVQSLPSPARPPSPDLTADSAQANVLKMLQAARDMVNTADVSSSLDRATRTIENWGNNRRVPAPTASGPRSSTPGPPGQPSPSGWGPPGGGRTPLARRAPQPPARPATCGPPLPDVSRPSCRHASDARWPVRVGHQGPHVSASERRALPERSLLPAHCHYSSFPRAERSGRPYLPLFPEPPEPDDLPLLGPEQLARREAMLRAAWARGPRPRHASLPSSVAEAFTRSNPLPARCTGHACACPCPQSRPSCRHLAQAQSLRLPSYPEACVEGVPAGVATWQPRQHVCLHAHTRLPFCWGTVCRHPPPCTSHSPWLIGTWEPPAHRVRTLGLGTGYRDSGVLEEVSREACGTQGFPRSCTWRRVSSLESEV
In words: Patch-clamp inhibition of GluN1/GluN2C receptors in transfected HEK293 cells. The class given is cell-based. As to conditions: 1 mM glutamate and 10 μM glycine. The protocol:
FIGURE 7 Concentration–response properties of compound 6 on GluN1/GluN2A-D receptors. (A) Examples of traces obtained from HEK293 cells transfected with cDNAs encoding GluN1/GluN2A, GluN1/GluN2B, GluN1/GluN2C, and GluN1/GluN2D receptors. Agonists (1 mM glutamate and 10 μM glycine) were applied alone and simultaneously with compound 6 (10 μM) to evaluate the inhibitory effect of compound 6 on NMDAR mediated currents (duration of glutamate and steroid application is indicated by filled and open bars, respectively). (B) Concentration–response curves for the compound 6 effect at GluN1/GluN2A-D receptors. Data points are averaged values of normalized responses from at least four HEK293 cells. Error bars represent SD.
Electrophysiological experiments were performed on HEK293 cells transfected with plasmids encoding rat GluN1-1a/GluN2A-D and GFP genes as described previously, ([Petrovic et al., 2005]; [Cais et al., 2008]; [Korinek et al., 2010]) or on primary hippocampal neurons prepared from P0–P1 rats, plated on collagen/poly-D-lysine-coated glass coverslips at a density of ∼50,000 cells/cm^2, and grown in Neurobasal A medium with B27 Supplement (Gibco). Agonist-induced responses were voltage-clamped at a holding potential of −60 mV. […] Agonist-induced responses were low-pass filtered at 2 kHz, digitally sampled at 5 kHz, and analyzed with pClamp software version 10.5 (Molecular Devices). […]

Read-outs that look alike come from different tables or passages of the source.

T1 sequence (Q00960 27-1482, other chains not shown): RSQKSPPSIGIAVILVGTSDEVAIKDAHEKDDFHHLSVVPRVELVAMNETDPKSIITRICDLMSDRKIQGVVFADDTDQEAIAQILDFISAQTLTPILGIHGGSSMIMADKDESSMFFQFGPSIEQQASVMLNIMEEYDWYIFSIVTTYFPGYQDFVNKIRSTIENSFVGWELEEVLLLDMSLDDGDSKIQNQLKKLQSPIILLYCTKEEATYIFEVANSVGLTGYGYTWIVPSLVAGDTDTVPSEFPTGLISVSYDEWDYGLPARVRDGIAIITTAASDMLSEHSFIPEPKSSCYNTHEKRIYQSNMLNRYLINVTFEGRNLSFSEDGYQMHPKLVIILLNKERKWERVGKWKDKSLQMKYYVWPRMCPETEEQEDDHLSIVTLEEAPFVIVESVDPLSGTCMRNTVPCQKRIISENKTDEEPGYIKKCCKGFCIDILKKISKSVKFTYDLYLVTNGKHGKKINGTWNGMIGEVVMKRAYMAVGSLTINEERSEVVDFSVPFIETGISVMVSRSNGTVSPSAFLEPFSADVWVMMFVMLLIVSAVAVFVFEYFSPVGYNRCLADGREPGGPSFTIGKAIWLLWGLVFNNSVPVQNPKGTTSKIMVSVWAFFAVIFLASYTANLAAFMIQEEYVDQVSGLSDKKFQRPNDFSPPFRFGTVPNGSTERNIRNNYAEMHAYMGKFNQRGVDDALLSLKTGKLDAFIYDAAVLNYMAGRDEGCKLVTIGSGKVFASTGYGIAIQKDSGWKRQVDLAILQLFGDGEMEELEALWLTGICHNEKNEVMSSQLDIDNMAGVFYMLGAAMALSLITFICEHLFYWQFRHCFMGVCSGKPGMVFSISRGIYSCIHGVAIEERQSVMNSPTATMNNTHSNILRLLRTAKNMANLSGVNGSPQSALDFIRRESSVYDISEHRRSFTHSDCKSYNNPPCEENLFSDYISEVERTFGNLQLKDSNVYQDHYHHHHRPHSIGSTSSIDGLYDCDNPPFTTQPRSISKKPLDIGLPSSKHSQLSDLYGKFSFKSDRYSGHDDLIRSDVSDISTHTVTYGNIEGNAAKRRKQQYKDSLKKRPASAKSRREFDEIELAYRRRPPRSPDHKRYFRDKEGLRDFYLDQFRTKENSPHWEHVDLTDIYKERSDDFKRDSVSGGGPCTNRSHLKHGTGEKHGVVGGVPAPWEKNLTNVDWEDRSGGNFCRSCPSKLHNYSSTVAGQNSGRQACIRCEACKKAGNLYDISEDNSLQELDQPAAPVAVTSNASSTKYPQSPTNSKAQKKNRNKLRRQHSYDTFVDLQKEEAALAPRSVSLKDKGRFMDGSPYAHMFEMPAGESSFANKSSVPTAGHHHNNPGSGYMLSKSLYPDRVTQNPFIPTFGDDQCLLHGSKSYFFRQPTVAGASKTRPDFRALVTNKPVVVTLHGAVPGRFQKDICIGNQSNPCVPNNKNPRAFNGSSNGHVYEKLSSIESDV

With `C[C@@]12CCC[C@H]1[C@@H]1CC[C@@H]3C[C@H](NC(=O)[C@@H](N)CC(=O)O)CC[C@]3(C)[C@H]1CC2` [Compound 6, (S)-3-amino-4-(((3R,5R,8S,9S,10S,13S,14S)-10,13-dimethylhexadecahydro-1H-cyclopenta[a]phenanthren-3-yl)amino)-4-oxobutanoic acid], at GluN1/GluN2B receptors, the ΔGexp is -7.29 kcal/mol. Moreover, the “h ± SD (apparent Hill coefficient)” value is 1.3 ± 0.1 at GluN1/GluN2B receptors (1 mM glutamate and 10 μM glycine); 1.6 ± 0.3 on GluN1/GluN2C receptors. For the same molecule, the IC50 (as a rule, the concentration that inhibits the measured activity by half) at GluN1/GluN2B receptors (as repeated in Table 2, read-out: IC50) was determined as 4.8 µM; at GluN1/GluN2B receptors (concentration-response, 1 mM glutamate and 10 μM glycine, read-out: IC50 ±SD), 7.4 ± 0.8 µM; at GluN1/GluN2B receptors (current responses to glutamate, HEK293, IC50 from single steroid dose, Hill coefficient fixed at 1.2, read-out: IC50 ± SD), 4.8 ± 0.9 µM; on GluN1/GluN2C receptors (concentration-response), 7.3 ± 0.8 µM.
